Data from patent publication US20220031800A1, “PEPTIDES FOR TREATING NON-EXUDATIVE MACULAR DEGENERATION AND OTHER DISORDERS OF THE EYE” (Allegro Pharmaceuticals, LLC, priority 2019, published 2022).
Square brackets hold non-standard residues; d marks the D form. Peptide text beside a SMILES is read from it. Cya = N[C@@H](CS(=O)(=O)O)C(=O)O

Key:
[1] = system: study eye of subjects with intermediate non-exudative AMD; assay: Microperimetry (mean retinal sensitivity, number of loci summed); format: in vivo, human
Description: Table 9, below, summarizes number of loci with reduced retinal sensitivity summed across assessments using a 20-dB threshold, an 11-dB threshold, and by measuring absolute scotoma.

[2] = system: human retinal Müller cells (MIO-M1); assay: Mitochondrial membrane potential (JC-1) in human Müller cells (MIO-M1); format: cell-based; conditions: 1× of 1 mg/50 μL, 24 hours; normalized to untreated control as 100%
Protocol: Purpose: To determine the effects of risuteganib on the mitochondrial membrane potential (ΔΨm) in cultured human retinal Müller cells (MIO-M1). Loss of ΔΨm is a marker for early cell death.
Methods: The immortalized human retinal Müller cell line (MIO-M1) was obtained from the Department of Cell Biology of the University College, London. Cells were cultured in Dulbecco's Modified Eagle's Medium (DMEM) and plated in 24-well plates for 24 hours before treatment with 1× concentration of 1 mg/50 μL risuteganib, ranibizumab, bevacizumab, or aflibercept. Dosage was based on clinical dose of each compound. The experiments were repeated 3 times with 6 replicates each. After 24 hours drug treatment, the ΔΨm was measured using the JC-1 kit, a cationic dye that fluoresces red within the mitochondria of healthy, live cells. In the stressed or apoptotic cells, the mitochondrial membrane potential collapses and the cationic dye fluoresces green. First, cells were rinsed with fresh media and then incubated with the JC-1 reagent for 15 minutes at 37 degrees C. The dyes were then removed, and phosphate buffered saline was added to each well. The Red fluorescence (live cells) was read at EX 550 nm and EM 600 nm. The Green fluorescence (apoptotic cells) was read at EX 483 nm and EM 535 nm. The changes in ΔΨm were calculated by the ratio of red to green fluorescence. […]

[3] = system: human RPE cells (ARPE-19); assay: Trypan blue viability of human RPE cells (ARPE-19) exposed to hydrogen peroxide; format: cell-based; conditions: 1.0 mg/mL risuteganib alone
Protocol: Purpose: Investigate cytoprotective properties of risuteganib in human RPE cells (ARPE-19) exposed to hydrogen peroxide, which is a reactive oxygen species that can induce cell death at elevated levels. Methods: ARPE-19 cells were cultured in laminin-coated trans-wells for 2 weeks to induce differentiation. Cells were then exposed to the experimental conditions: […]

[4] = system: study eye of subjects with intermediate non-exudative AMD; assay: Lanthony D-15 color vision test (Total Error Score Hue Style) in Dry AMD study; format: in vivo, human; set-up: Color vision Total Error Score Hue Style, mean / Color vision Total Error Score Hue Style, median / Color vision Total Error Score Hue Style change, median: scale not given here
Protocol: Numerous study assessments were conducted at various time points throughout the study. Included among these study assessments were; refractive eye examinations, determinations of BCVA AND low-luminance BCVA, Lanthony D-15 color vision test, measurement of intraocular pressure (IOP), Indirect ophthalmoscopy/dilated fundus examinations and spectral-domain optical coherence tomography (SD-OCT). Also, blood and saliva samples were obtained from each subject for genetic analysis. The above-listed study assessments were performed at the time points indicated in Table 1, below: The results of color vision testing of the study subjects are summarized in Table 5, below.

[5] = Week 32, Group 2 (1 mg IVT day 1 + wk 16)
[6] = Week 32 change, Group 1 crossover (sham day 1, 1 mg IVT wk 16)
[7] = Week 12, Group 2 (1 mg IVT day 1 + wk 16)
[8] = Week 32, Group 1 crossover (sham day 1, 1 mg IVT wk 16)

`C[C@@H](O)[C@H](NC(=O)[C@H](CS(=O)(=O)O)NC(=O)CNC(=O)[C@H](CCCNC(=N)N)NC(=O)CN)C(=O)N1CCC[C@H]1C(=O)O` [risuteganib, Glycyl-L-arginylglycyl-3-sulfo-L-alanyl-L-threonyl-L-proline] (H-GRG[Cya]TP-OH) was tested, and the “Microperimetry number of loci summed change, median” value ([1]; Week 12 change, Group 2 (1 mg IVT day 1 + wk 16)) was 4.0, the “Microperimetry number of loci summed change, mean” value ([1]; Week 12 change, Group 2 (1 mg IVT day 1 + wk 16), increase = worsening) was 6.1 and the “Microperimetry number of loci summed (reduced sensitivity), mean” value [1, 5] was 80.7. The “Microperimetry number of loci summed change, median” value [1, 6] was −1.0, the “Microperimetry number of loci summed change, median” value ([1]; Week 32 change, Group 2 (1 mg IVT day 1 + wk 16)) was −3.0 and the “Decrease (improvement) in number of summed loci with reduced retinal sensitivity” value ([1]; risuteganib responders at Week 32 (FIG. 7)) was 17.75. The “Mitochondrial membrane potential (ΔΨm, red/green JC-1 ratio)” value [2] was 109.3±4.91, the “Change in cell viability, treatment alone” value [3] was “did not induce detectable change in cell viability” and the “Color vision Total Error Score Hue Style, mean” value [4, 7] was 43.38. For the same compound, the “Color vision Total Error Score Hue Style, median” value [4, 7] was 39.67, the “Color vision Total Error Score Hue Style change, median” value ([4]; Week 12 change from screening, Group 2 (1 mg IVT day 1 + wk 16)) was 2.67 and the “Color vision Total Error Score Hue Style change, mean” value ([4]; Week 12 change from screening, Group 2 (1 mg IVT day 1 + wk 16), increase = worsening) was 2.41. For the same compound, the “Color vision Total Error Score Hue Style, mean” value [4, 8] was 48.76, the “Color vision Total Error Score Hue Style, median” value [4, 8] was 42.00 and the “Color vision Total Error Score Hue Style, mean” value [4, 5] was 39.88. For the same compound, the “Color vision Total Error Score Hue Style, median” value [4, 5] was 24.09, the “Color vision Total Error Score Hue Style change, median” value ([4]; Week 32 change from screening, Group 2 (1 mg IVT day 1 + wk 16)) was −3.17 and the “Color vision Total Error Score Hue Style change, median” value [4, 6] was 1.34. The “Decrease (improvement) in color vision total error score” value ([4]; risuteganib responders at Week 32 (FIG. 3)) was 13.03.
